Data as given in article PMC11396667, “Design, Synthesis, and Anticancer and Antibacterial Activities of Quinoline-5-Sulfonamides” (Molecules, 2024).
≈ marks a conversion by molar mass, not a printed value.

What was measured:
Assay type in all cases: cell-based
[1] = system: Staphylococcus aureus ATCC 29213; assay: MBC, agar aliquot subculture method, SA; conditions: ATCC29213, 99.9% decrease in CFU, 24 h, 37 °C
Source text: (§1) The activities of the individual derivatives were expressed as minimum inhibitory concentrations (MICs) and minimum bactericidal concentrations (MBCs) and are shown in Table 3 together with the values of the antibiotics used as standards for comparison. […] MBC values of bactericidal compounds are indicated in bold in Table 3.
(§2) For the above-mentioned strains/isolates, the agar aliquot subculture method was used as a test for bactericidal agents. After the MIC value determination, the inoculum was transferred to CaMH (Oxoid) for staphylococci, and BHI (Oxoid) for enterococci medium using a multipoint inoculator. The plates were incubated in a thermostat at 37 °C for 24 h. The lowest concentration of test compound at which ≤5 colonies were obtained was then evaluated as MBC, corresponding to a 99.9% decrease in CFU relative to the original inoculum.

[2] = system: methicillin-resistant S. aureus SA 630; assay: MBC, agar aliquot subculture method, MRSA2; conditions: Staphylococcus aureus; 99.9% decrease in CFU, 24 h, 37 °C
Source text: as §1, §2

[3] = system: methicillin-resistant S. aureus SA 3202; assay: MIC, microtitration broth method, MRSA1; conditions: Staphylococcus aureus; 24 h, 37 °C, CaMH broth
Source text: (§3) Since there is a general decrease in immunity during the treatment of oncological patients, i.e., patients are more susceptible to infectious diseases, it is advantageous if anticancer agents show antimicrobial properties at the same time. Therefore, the effects of the compounds were also investigated against Gram-positive bacteria. For this purpose, the susceptible collection strains of aerobic Staphylococcus aureus ATCC 29213 and facultatively aerobic Enterococcus faecalis ATCC 29212 and resistant clinical isolates of methicillin-resistant S. aureus (MRSA) SA 3202, SA 630 carrying the mecA gene, and vancomycin-resistant isolates of E. faecalis (VRE) 342B, 368, and 725B carrying the vanA gene were selected. Thus, the selection of the studied bacterial strains was adopted following the CLSI ([…]) international reference methodologies.
(§4) The in vitro antibacterial activity of the synthesized compounds was evaluated against representatives of multidrug-resistant bacteria, […] clinical isolates of methicillin-resistant S. aureus: clinical isolates of human origin, MRSA SA 3202, and MRSA SA 630 (National Institute of Public Health, Prague, Czech Republic), carrying the mecA gene. These two clinical isolates were classified as vancomycin-susceptible (but with a higher MIC of vancomycin equal to 2 μg/mL (VA2-MRSA). Vancomycin- and methicillin-susceptible S. aureus ATCC 29213 and vancomycin-susceptible Enterococcus faecalis ATCC 29212, obtained from the American Type Culture Collection, were used as the reference and quality control strains. Three vanA gene-carrying vancomycin-resistant isolates of E. faecalis (VRE 342B, VRE 368, VRE 725B) (Department of Infectious Diseases and Microbiology, Faculty of Veterinary Medicine, University of Veterinary Sciences Brno, Czech Republic) were provided by Oravcova et al..
(§5) The minimum inhibitory concentrations (MICs) were evaluated by the microtitration broth method according to the CLSI, with some modifications. The compounds were dissolved in DMSO (Sigma, St. Louis, MO, USA) to obtain a concentration of […] and diluted in a microtitration plate in an appropriate medium, i.e., Cation-Adjusted Mueller–Hinton Broth (CaMH, Oxoid, Basingstoke, UK) for staphylococci, and Brain Heart Infusion Broth (BHI, Oxoid) for enterococci to reach the final concentration of 256–0.125 µg/mL. Microtiter plates were inoculated with test microorganisms so that the final concentration of bacterial cells was 10^5. Ampicillin, oxacillin, and ciprofloxacin (Sigma) were used as reference drugs. A drug-free control and a sterility control were included. The plates were incubated for 24 h at 37 °C for staphylococci and enterococci. […] The experiments were repeated three times.

[4] = system: vancomycin-resistant E. faecalis VRE 368; assay: MIC, microtitration broth method, VRE2; conditions: Enterococcus faecalis, 24 h, 37 °C, BHI broth
Source text: as §3, §4, §5

[5] = system: vancomycin-resistant E. faecalis VRE 725B; assay: MIC, microtitration broth method, VRE3; conditions: Enterococcus faecalis, 24 h, 37 °C, BHI broth
Source text: as §3, §4, §5

[6] = system: Enterococcus faecalis ATCC 29212; assay: MIC, microtitration broth method, EF; conditions: ATCC29212, 24 h, 37 °C, BHI broth
Source text: as §3, §4, §5

[7] = system: HFF-1 (normal human dermal fibroblasts); assay: WST-1 cell viability assay, normal HFF-1; conditions: HFF-1, WST-1, 72 h exposure, ± SD, n = 6
Method: (§6) The synthesized compounds were tested using three cancer cell lines—human amelanotic melanoma (C-32), human breast adenocarcinoma (MDA-MB-231), and human lung adenocarcinoma (A549)—and, for comparison, normal human dermal fibroblasts (HFF-1). The WST-1 (water-soluble tetrazole salt) assay was used to evaluate the effect of the synthesized compounds on the viability of cultured cells.
(§7) Compounds were evaluated for their antiproliferative activity using three cultured cell lines: C-32 (human amelanotic melanoma, ATCC, Manassas, VA, USA), A549 (human lung adenocarcinoma, ATCC, Manassas, VA, USA), MDA-MB-231 (human breast adenocarcinoma derived from metastatic site: pleural effusion, ATCC, Manassas, VA, USA), together with HFF-1 (normal human dermal fibroblasts, ATCC, Manassas, VA, USA). The cultured cells were kept at 37 °C and 5% CO2.
(§8) Cells were seeded in 96-well plates at 5000/well in 100 μL of medium. After 24 h of incubation, the medium was replaced with a new one with the addition of the test substance. After 72 h, the following tests were performed: with crystal violet (determination of the number of adherent cells in the culture), the WST-1 test (determination of the relative number of living cells and their metabolic activity), and the LDH test (determination of the relative number of dead cells in cultures—cytotoxicity of the tested substance).
(§9) WST-1 test: The WST-1 test (Roche Diagnostics, Mannheim, Germany) allows one to determine the relative number of cells in cultures. Absorbance is directly proportional to the number of cells and their metabolic activity. The absorbance measurement is performed at λ = 450 nm (reference wave 600 nm).

[8] = system: C-32 (human amelanotic melanoma) cells; assay: WST-1 cell viability assay, C-32; conditions: Homo sapiens; WST-1, 72 h exposure, ± SD, n = 6
Method: as §6, §7, §8, §9

[9] = system: vancomycin-resistant E. faecalis VRE 342B; assay: MIC, microtitration broth method, VRE1; conditions: Enterococcus faecalis, 24 h, 37 °C, BHI broth
Source text: as §3, §4, §5

[10] = system: methicillin-resistant S. aureus SA 630; assay: MIC, microtitration broth method, MRSA2; conditions: Staphylococcus aureus; 24 h, 37 °C, CaMH broth
Source text: as §3, §4, §5

[11] = system: Enterococcus faecalis ATCC 29212; assay: MBC, agar aliquot subculture method, EF; conditions: ATCC29212, 99.9% decrease in CFU, 24 h, 37 °C
Source text: as §1, §2

| MIC [3] [µM] | MIC [4] [µM] | MIC [5] [µM] | MIC [6] [µM] | IC50 [8] [µM] | MIC [9] [µM] | MIC [10] [µM] | Compound | MBC [1] [µM] | MBC [2] [µM] | IC50 [7] [µM] | MBC [11] [µM] |
| --- | --- | --- | --- | --- | --- | --- | --- | --- | --- | --- | --- |
| 45.2 (≈ 16 µg/mL) | 362 (≈ 128 µg/mL) | 362 (≈ 128 µg/mL) | 362 (≈ 128 µg/mL) | 29.6 ± 2.6 | 362 (≈ 128 µg/mL) | 90.4 (≈ 32 µg/mL) | C#CCOc1ccccc1NS(=O)(=O)c1ccc(O)c2ncccc12 [3f, 8-Hydroxy-N-[2-(prop-2-yn-1-yloxy)phenyl]quinoline-5-sulfonamide] | 45.2 (≈ 16 µg/mL) | 90.4 (≈ 32 µg/mL) | 28.1 ± 2.2 | 362 (≈ 128 µg/mL) |
| 45.2 (≈ 16 µg/mL) | 362 (≈ 128 µg/mL) | 362 (≈ 128 µg/mL) | 362 (≈ 128 µg/mL) | 8.6 ± 0.9 | 362 (≈ 128 µg/mL) | 90.4 (≈ 32 µg/mL) | C#CCOc1cccc(NS(=O)(=O)c2ccc(O)c3ncccc23)c1 [3e, 8-Hydroxy-N-[3-(prop-2-yn-1-yloxy)phenyl]quinoline-5-sulfonamide] | 45.2 (≈ 16 µg/mL) | 90.4 (≈ 32 µg/mL) | > 100 | 362 (≈ 128 µg/mL) |
| 45.2 (≈ 16 µg/mL) | 362 (≈ 128 µg/mL) | 362 (≈ 128 µg/mL) | 362 (≈ 128 µg/mL) | 10.4 ± 0.5 | 362 (≈ 128 µg/mL) | 90.4 (≈ 32 µg/mL) | C#CCOc1ccc(NS(=O)(=O)c2ccc(O)c3ncccc23)cc1 [3d, 8-Hydroxy-N-[4-(prop-2-yn-1-yloxy)phenyl]quinoline-5-sulfonamide] | 45.2 (≈ 16 µg/mL) | 90.4 (≈ 32 µg/mL) | > 100 | 362 (≈ 128 µg/mL) |
| 122 (≈ 32 µg/mL) | 977 (≈ 256 µg/mL) | 977 (≈ 256 µg/mL) | 977 (≈ 256 µg/mL) | 19.8 ± 1.1 | 977 (≈ 256 µg/mL) | 244 (≈ 64 µg/mL) | C#CCNS(=O)(=O)c1ccc(O)c2ncccc12 [3a, 8-Hydroxy-N-(prop-2-yn-1-yl)quinoline-5-sulfonamide] | 122 (≈ 32 µg/mL) | 244 (≈ 64 µg/mL) | > 100 | > 977 |
| 55.2 (≈ 16 µg/mL) | 883 (≈ 256 µg/mL) | 883 (≈ 256 µg/mL) | 883 (≈ 256 µg/mL) | 22.1 ± 1.5 | 883 (≈ 256 µg/mL) | 110 (≈ 31.9 µg/mL) | C#CC(C)(C)NS(=O)(=O)c1ccc(O)c2ncccc12 [3b, 8-Hydroxy-N-(1,1-dimethylprop-2-yn-1-yl)quinoline-5-sulfonamide] | 110 (≈ 31.9 µg/mL) | 110 (≈ 31.9 µg/mL) | > 100 | > 883 |
| 29 (≈ 8.01 µg/mL) | 464 (≈ 128 µg/mL) | 464 (≈ 128 µg/mL) | 464 (≈ 128 µg/mL) | 9.8 ± 0.6 | 464 (≈ 128 µg/mL) | 29 (≈ 8.01 µg/mL) | C#CCN(C)S(=O)(=O)c1ccc(O)c2ncccc12 [3c, 8-Hydroxy-N-methyl-N-(prop-2-yn-1-yl)quinoline-5-sulfonamide] | 29 (≈ 8.01 µg/mL) | 29 (≈ 8.01 µg/mL) | > 100 | > 464 |
